{"source": "patent US8741897B2", "about": "“Glucocorticoid mimetics, methods of making them, pharmaceutical compositions and uses thereof” (Boehringer Ingelheim Pharmaceuticals Inc., priority 2003, dated 2014)", "key": {"[1]": {"molecular_target": "T1, human glucocorticoid receptor (GR) complex (Homo sapiens, UniProt P04150)", "T1 construct": "made in house; host or cells: insect expression system (baculovirus lysate)", "T1 sequence (P04150 1-777)": "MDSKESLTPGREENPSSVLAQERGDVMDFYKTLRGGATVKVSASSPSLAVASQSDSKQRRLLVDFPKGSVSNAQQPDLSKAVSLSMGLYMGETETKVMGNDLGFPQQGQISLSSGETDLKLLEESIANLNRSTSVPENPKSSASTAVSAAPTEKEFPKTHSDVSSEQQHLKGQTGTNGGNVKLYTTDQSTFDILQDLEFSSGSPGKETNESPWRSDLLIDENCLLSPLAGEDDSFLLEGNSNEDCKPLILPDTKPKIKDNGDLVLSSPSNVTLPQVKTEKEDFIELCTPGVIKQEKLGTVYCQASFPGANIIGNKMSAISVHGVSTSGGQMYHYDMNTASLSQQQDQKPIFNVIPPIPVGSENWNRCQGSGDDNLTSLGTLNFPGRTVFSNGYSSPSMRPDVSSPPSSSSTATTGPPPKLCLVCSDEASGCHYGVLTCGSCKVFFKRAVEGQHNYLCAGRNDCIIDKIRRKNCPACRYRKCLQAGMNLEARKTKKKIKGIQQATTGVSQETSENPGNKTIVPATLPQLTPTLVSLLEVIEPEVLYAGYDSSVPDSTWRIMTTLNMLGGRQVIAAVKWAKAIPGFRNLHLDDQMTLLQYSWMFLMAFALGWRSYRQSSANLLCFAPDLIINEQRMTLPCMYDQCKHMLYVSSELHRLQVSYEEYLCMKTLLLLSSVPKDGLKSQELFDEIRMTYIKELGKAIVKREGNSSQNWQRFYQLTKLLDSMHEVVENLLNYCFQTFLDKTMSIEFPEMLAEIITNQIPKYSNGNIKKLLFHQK", "assay": "Glucocorticoid receptor competitive binding assay (fluorescence polarization, TAMRA-labeled dexamethasone probe)", "conditions": "compounds of Formula (IA)", "how_it_was_run": "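Fluorescence-polarization competition against 15 nM TAMRA-dexamethasone (stock added to the mix) for human GR complex from baculovirus lysate diluted 1:170. Buffer: 10 mM TES, 50 mM KCl, 20 mM Na2MoO4, 1.5 mM EDTA, 0.04% CHAPS, 10% glycerol, 1 mM DTT, pH 7.4. IC50 from 4-parameter logistic fit.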"}, "[2]": {"test_system": "glucocorticoid receptor function", "assay": "one or more of the above assays (GR binding and glucocorticoid receptor cell assays: aromatase, IL-6, TAT, MMTV-Luc, IL-8, ICAM-Luc)", "assay_type": "cell-based", "conditions": "assay not specified per compound"}}, "data": [{"smiles": "COc1ccc(F)cc1C(C)(C)CC(O)(Cc1cc2c(C)cncc2[nH]1)C(F)(F)F", "note": "(centres unmarked) [1,1,1-Trifluoro-4-(5-fluoro-2-methoxyphenyl)-4-methyl-2-(4-methyl-1H-pyrrolo[2,3-c]pyridin-2-ylmethyl)pentan-2-ol]", "values": [{"measurement": "activity in the GR binding assay", "setting": "[1]", "result": "potent activity"}, {"measurement": "activity as agonists of the glucocorticoid receptor function in one or more of the above assays", "setting": "[2]", "result": "potent agonists"}]}, {"smiles": "COc1ccc(F)cc1C(C)(C)CC(O)(Cc1ccnc(C#N)c1)C(F)(F)F", "note": "(centres unmarked) [4-[4-(5-Fluoro-2-methoxyphenyl)-2-hydroxy-4-methyl-2-trifluoromethylpentyl]pyridine-2-carbonitrile]", "values": [{"measurement": "activity in the GR binding assay", "setting": "[1]", "result": "potent activity"}, {"measurement": "activity as agonists of the glucocorticoid receptor function in one or more of the above assays", "setting": "[2]", "result": "potent agonists"}]}, {"smiles": "CSc1ccc2[nH]c(CC(O)(CC(C)(C)c3cc(F)cc4c3OCC4)C(F)(F)F)cc2c1", "note": "(centres unmarked) [1,1,1-Trifluoro-4-(5-fluoro-2,3-dihydrobenzofuran-7-yl)-4-methyl-2-(5-methylsulfanyl-1H-indol-2-ylmethyl)pentan-2-ol]", "values": [{"measurement": "activity in the GR binding assay", "setting": "[1]", "result": "potent activity"}, {"measurement": "activity as agonists of the glucocorticoid receptor function in one or more of the above assays", "setting": "[2]", "result": "potent agonists"}]}, {"smiles": "Cc1cc2[nH]c(CC(O)(CC(C)(C)c3cc(Cl)cc4c3OCC4)C(F)(F)F)cc2cn1", "note": "(centres unmarked) [4-(5-Chloro-2,3-dihydrobenzofuran-7-yl)-1,1,1-trifluoro-4-methyl-2-(6-methyl-1H-pyrrolo[3,2-c]pyridin-2-ylmethyl)pentan-2-ol]", "values": [{"measurement": "activity in the GR binding assay", "setting": "[1]", "result": "potent activity"}, {"measurement": "activity as agonists of the glucocorticoid receptor function in one or more of the above assays", "setting": "[2]", "result": "potent agonists"}]}, {"smiles": "Cc1cc(C#N)cc2[nH]c(CC(O)(CC(C)(C)c3cc(Br)cc4c3OCC4)C(F)(F)F)cc12", "note": "(centres unmarked) [2-[4-(5-Bromo-2,3-dihydrobenzofuran-7-yl)-2-hydroxy-4-methyl-2-trifluoromethylpentyl]-4-methyl-1H-indole-6-carbonitrile]", "values": [{"measurement": "activity in the GR binding assay", "setting": "[1]", "result": "potent activity"}, {"measurement": "activity as agonists of the glucocorticoid receptor function in one or more of the above assays", "setting": "[2]", "result": "potent agonists"}]}, {"smiles": "Cc1cc(C(C)(C)CC(O)(Cc2cc3ccccc3[nH]2)C(F)(F)F)ccc1F", "note": "(centres unmarked) [1,1,1-Trifluoro-4-(4-fluoro-3-methylphenyl)-2-(1H-indol-2-ylmethyl)-4-methylpentan-2-ol]", "values": [{"measurement": "activity in the GR binding assay", "setting": "[1]", "result": "potent activity"}, {"measurement": "activity as agonists of the glucocorticoid receptor function in one or more of the above assays", "setting": "[2]", "result": "potent agonists"}]}, {"smiles": "COc1ccc(F)cc1C(C)(C)CC(O)(Cc1cc2cc(C(=O)NCC(N)=O)ccc2[nH]1)C(F)(F)F", "note": "(centres unmarked) [2-[4-(5-Fluoro-2-methoxyphenyl)-2-hydroxy-4-methyl-2-trifluoromethylpentyl]-1H-indole-5-carboxylic acid carbamoylmethylamide]", "values": [{"measurement": "activity in the GR binding assay", "setting": "[1]", "result": "potent activity"}, {"measurement": "activity as agonists of the glucocorticoid receptor function in one or more of the above assays", "setting": "[2]", "result": "potent agonists"}]}, {"smiles": "CC(C)(CC(O)(Cc1cc2cc([N+](=O)[O-])ccc2[nH]1)C(F)(F)F)c1cc(F)ccc1O", "note": "(centres unmarked) [4-Fluoro-2-[4,4,4-trifluoro-3-hydroxy-1,1-dimethyl-3-(5-nitro-1H-indol-2-ylmethyl)butyl]phenol]", "values": [{"measurement": "activity in the GR binding assay", "setting": "[1]", "result": "potent activity"}, {"measurement": "activity as agonists of the glucocorticoid receptor function in one or more of the above assays", "setting": "[2]", "result": "potent agonists"}]}, {"smiles": "Cc1ccc(F)c2[nH]c(CC(O)(CC(C)(C)c3ccc(F)cc3O)C(F)(F)F)cc12", "note": "(centres unmarked) [5-Fluoro-2-[4,4,4-trifluoro-3-(7-fluoro-4-methyl-1H-indol-2-ylmethyl)-3-hydroxy-1,1-dimethylbutyl]phenol]", "values": [{"measurement": "activity in the GR binding assay", "setting": "[1]", "result": "potent activity"}, {"measurement": "activity as agonists of the glucocorticoid receptor function in one or more of the above assays", "setting": "[2]", "result": "potent agonists"}]}, {"smiles": "CC(C)(CC(O)(Cc1ccnc2ccccc12)C(F)(F)F)c1ccccc1C(F)(F)F", "note": "(centres unmarked) [1,1,1-Trifluoro-4-methyl-2-quinolin-4-ylmethyl-4-(2-trifluoromethylphenyl)pentan-2-ol]", "values": [{"measurement": "activity in the GR binding assay", "setting": "[1]", "result": "potent activity"}, {"measurement": "activity as agonists of the glucocorticoid receptor function in one or more of the above assays", "setting": "[2]", "result": "potent agonists"}]}, {"smiles": "CC(C)(CC(O)(Cc1cc2cnccc2[nH]1)C(F)(F)F)c1cc(Br)cc2c1OCC2", "note": "(centres unmarked) [4-(5-Bromo-2,3-dihydrobenzofuran-7-yl)-1,1,1-trifluoro-4-methyl-2-(1H-pyrrolo[3,2-c]pyridin-2-ylmethyl)pentan-2-ol]", "values": [{"measurement": "activity in the GR binding assay", "setting": "[1]", "result": "potent activity"}, {"measurement": "activity as agonists of the glucocorticoid receptor function in one or more of the above assays", "setting": "[2]", "result": "potent agonists"}]}, {"smiles": "COc1ccc(F)cc1C(C)(C)CC(O)(Cc1cc2cc(C(=O)NCC#N)ccc2[nH]1)C(F)(F)F", "note": "(centres unmarked) [2-[4-(5-Fluoro-2-methoxyphenyl)-2-hydroxy-4-methyl-2-trifluoromethylpentyl]-1H-indole-5-carboxylic acid cyanomethylamide]", "values": [{"measurement": "activity in the GR binding assay", "setting": "[1]", "result": "potent activity"}, {"measurement": "activity as agonists of the glucocorticoid receptor function in one or more of the above assays", "setting": "[2]", "result": "potent agonists"}]}, {"smiles": "CC(C)(CC(O)(Cc1cc2ccccc2[nH]1)C(F)(F)F)c1ccccc1C(F)(F)F", "note": "(centres unmarked) [1,1,1-Trifluoro-2-(1H-indol-2-ylmethyl)-4-methyl-4-(2-trifluoromethylphenyl)pentan-2-ol]", "values": [{"measurement": "activity in the GR binding assay", "setting": "[1]", "result": "potent activity"}, {"measurement": "activity as agonists of the glucocorticoid receptor function in one or more of the above assays", "setting": "[2]", "result": "potent agonists"}]}, {"smiles": "COc1ccc(F)cc1C(C)(C)CC(O)(Cc1cc2cc(C(=O)N3CCCC3)ccc2[nH]1)C(F)(F)F", "note": "(centres unmarked) [{2-[4-(5-Fluoro-2-methoxyphenyl)-2-hydroxy-4-methyl-2-trifluoromethylpentyl]-1H-indol-5-yl}pyrrolidin-1-ylmethanone]", "values": [{"measurement": "activity in the GR binding assay", "setting": "[1]", "result": "potent activity"}, {"measurement": "activity as agonists of the glucocorticoid receptor function in one or more of the above assays", "setting": "[2]", "result": "potent agonists"}]}, {"smiles": "CC(C)(CC(O)(Cc1cc2ccccc2[nH]1)C(F)(F)F)c1cc(F)ccc1OC(F)F", "note": "(centres unmarked) [4-(2-Difluoromethoxy-5-fluorophenyl)-1,1,1-trifluoro-2-(1H-indol-2-ylmethyl)-4-methylpentan-2-ol]", "values": [{"measurement": "activity in the GR binding assay", "setting": "[1]", "result": "potent activity"}, {"measurement": "activity as agonists of the glucocorticoid receptor function in one or more of the above assays", "setting": "[2]", "result": "potent agonists"}]}, {"smiles": "Cc1c(CC(O)(CC(C)(C)c2cc(Cl)cc3c2OCC3)C(F)(F)F)[nH]c2cnccc12", "note": "(centres unmarked) [4-(5-Chloro-2,3-dihydrobenzofuran-7-yl)-1,1,1-trifluoro-4-methyl-2-(3-methyl-1H-pyrrolo[2,3-c]pyridin-2-ylmethyl)pentan-2-ol]", "values": [{"measurement": "activity in the GR binding assay", "setting": "[1]", "result": "potent activity"}, {"measurement": "activity as agonists of the glucocorticoid receptor function in one or more of the above assays", "setting": "[2]", "result": "potent agonists"}]}, {"smiles": "COc1ccc(F)cc1C(C)(C)CC(O)(Cc1cc2c(C)nccc2[nH]1)C(F)(F)F", "note": "(centres unmarked) [1,1,1-Trifluoro-4-(5-fluoro-2-methoxyphenyl)-4-methyl-2-(4-methyl-1H pyrrolo[3,2-c]pyridin-2-ylmethyl)pentan-2-ol]", "values": [{"measurement": "activity in the GR binding assay", "setting": "[1]", "result": "potent activity"}, {"measurement": "activity as agonists of the glucocorticoid receptor function in one or more of the above assays", "setting": "[2]", "result": "potent agonists"}]}, {"smiles": "CN(C)c1ccc(C(C)(C)CC(O)(Cc2ccnc3ccccc23)C(F)(F)F)cc1", "note": "(centres unmarked) [4-(4-Dimethylaminophenyl)-1,1,1-trifluoro-4-methyl-2-quinolin-4-ylmethylpentan-2-ol]", "values": [{"measurement": "activity in the GR binding assay", "setting": "[1]", "result": "potent activity"}, {"measurement": "activity as agonists of the glucocorticoid receptor function in one or more of the above assays", "setting": "[2]", "result": "potent agonists"}]}, {"smiles": "CC(C)(CC(O)(Cc1cc2ccccc2[nH]1)C(F)(F)F)c1cccc(Cl)c1", "note": "(centres unmarked) [4-(3-Chlorophenyl)-1,1,1-trifluoro-2-(1H-indol-2-ylmethyl)-4-methylpentan-2-ol]", "values": [{"measurement": "activity in the GR binding assay", "setting": "[1]", "result": "potent activity"}, {"measurement": "activity as agonists of the glucocorticoid receptor function in one or more of the above assays", "setting": "[2]", "result": "potent agonists"}]}]}
